Laboratory results taken from ChEMBL document CHEMBL4673291, “Synthesis and antiproliferative evaluation of novel 8-cyclopentyl-7,8-dihydropteridin-6(5H)-one derivatives as potential anticancer agents” (Bioorg Med Chem Lett, 2021).

Key:
[1] = tested on: MDA-MB-231; test: Antiproliferative activity against human MDA-MB-231 cells assessed as inhibition of cell proliferation measured after 48 hrs by MTT assay; format: functional, cell-based; settings: MDA-MB-231, 48 h
[2] = tested on: HCT-116; test: Antiproliferative activity against human HCT-116 cells assessed as inhibition of cell proliferation measured after 48 hrs by MTT assay; format: functional, cell-based; settings: HCT-116, 48 h
[3] = tested on: HeLa; test: Antiproliferative activity against human HeLa cells assessed as inhibition of cell proliferation measured after 48 hrs by MTT assay; format: functional, cell-based
[4] = tested on: HEK293; test: Cytotoxicity against HEK293 cells assessed as inhibition of cell proliferation measured after 48 hrs by MTT assay; format: cell-based; settings: Homo sapiens, HEK293, 48 h
[5] = tested on: HT-29; test: Antiproliferative activity against human HT-29 cells assessed as inhibition of cell proliferation measured after 48 hrs by MTT assay; format: functional, cell-based; settings: HT-29, 48 h
[6] = tested on: HeLa; test: Cell cycle arrest in human HeLa cells assessed as accumulation at G2/M phase measured after 24 hrs by flow cytometry analysis; format: functional, cell-based; settings: dose 3-12 µM
[7] = tested on: HeLa; test: Cell cycle arrest in human HeLa cells assessed as accumulation at S phase at 12 uM measured after 24 hrs by flow cytometry analysis (reference value: 17.44 %); format: functional
[8] = tested on: HeLa; test: Cell cycle arrest in human HeLa cells assessed as accumulation at G1/G0 phase at 3 uM measured after 24 hrs by flow cytometry analysis (reference value: 67.34 %); format: functional
[9] = tested on: HeLa; test: Cell cycle arrest in human HeLa cells assessed as accumulation at G2/M phase at 12 uM measured after 24 hrs by flow cytometry analysis (reference value: 15.22 %); format: functional
[10] = tested on: HeLa; test: Cell cycle arrest in human HeLa cells assessed as accumulation at G1/G0 phase at 12 uM measured after 24 hrs by flow cytometry analysis (reference value: 67.34 %); format: functional
[11] = tested on: HeLa; test: Cell cycle arrest in human HeLa cells assessed as accumulation at G2/M phase at 6 uM measured after 24 hrs by flow cytometry analysis (reference value: 15.22 %); format: functional
[12] = tested on: HeLa; test: Cell cycle arrest in human HeLa cells assessed as accumulation at S phase at 3 uM measured after 24 hrs by flow cytometry analysis (reference value: 17.44 %); format: functional
[13] = tested on: HeLa; test: Cell cycle arrest in human HeLa cells assessed as accumulation at G1/G0 phase at 6 uM measured after 24 hrs by flow cytometry analysis (reference value: 67.34 %); format: functional
[14] = tested on: HeLa; test: Cell cycle arrest in human HeLa cells assessed as accumulation at S phase at 6 uM measured after 24 hrs by flow cytometry analysis (reference value: 17.44 %); format: functional
[15] = tested on: HeLa; test: Cell cycle arrest in human HeLa cells assessed as accumulation at G2/M phase at 3 uM measured after 24 hrs by flow cytometry analysis (reference value: 15.22 %); format: functional

SMILES	IC50 [1]	IC50 [2]	IC50 [3]	IC50 [4]	IC50 [5]	also measured
CCN1C(=O)CN(C2CCCC2)c2nc(Nc3ccc(OC)cc3)ncc21	> 30 µM	11 µM				
O=C1CN(Cc2ccccc2)c2nc(NCCc3ccccc3)ncc2N1		25.4 µM	20.7 µM	> 30 µM	> 30 µM	
CCN1C(=O)CN(C2CCCC2)c2nc(Nc3ccc(N4CCN(C)CC4)cn3)ncc21	24.1 µM	16.4 µM	29.1 µM	> 30 µM	7.84 µM	
CC1CCN(c2ccc(Nc3ncc4c(n3)N(C3CCCC3)CC(=O)N4C)cc2)CC1	> 30 µM	25.3 µM	> 30 µM		> 30 µM	
CCN1C(=O)CN(C2CCCC2)c2nc(Nc3ccc(N4CCCCC4)cc3)ncc21	> 30 µM	5.47 µM	> 30 µM	> 30 µM	> 30 µM	
CCN1C(=O)CN(C2CCCC2)c2nc(Nc3ccc(N4CCOCC4)cc3)ncc21	> 30 µM	9.05 µM	> 30 µM		> 30 µM	
CN1CCN(c2ccc(Nc3ncc4c(n3)N(C3CCCC3)CC(=O)N4C)nc2)CC1	23.7 µM	9.73 µM	13.1 µM		11.1 µM	
CN1C(=O)CN(C2CCCC2)c2nc(Nc3ccc(N4CCCCC4)cn3)ncc21	29.3 µM	3.89 µM	> 30 µM	> 30 µM	12.5 µM	
CCN1C(=O)CN(C2CCCC2)c2nc(Nc3ccc(N4CCOCC4)cn3)ncc21	> 30 µM	> 30 µM	> 30 µM		27.6 µM	
CCN1C(=O)CN(C2CCCC2)c2nc(Nc3ccc(N4CCN(C)CC4)cc3)ncc21	26.2 µM	7.96 µM	28.3 µM	> 30 µM	10.3 µM	
CN1CCN(c2ccc(Nc3ncc4c(n3)N(C3CCCC3)CC(=O)N4)cc2)CC1	26.1 µM	12.2 µM	21.3 µM	> 30 µM	5.22 µM	
O=C1CN(C2CCCC2)c2nc(Nc3ccc(N4CCCCC4)cn3)ncc2N1	> 30 µM	> 30 µM	> 30 µM		21.1 µM	
O=C1CN(C2CCCC2)c2nc(Nc3ccc(N4CCNCC4)cn3)ncc2N1	> 30 µM	> 30 µM	> 30 µM		> 30 µM	
COc1ccc(Nc2ncc3c(n2)N(C2CCCC2)CC(=O)N3C)cc1	> 30 µM	12.3 µM				
CC1CCN(c2ccc(Nc3ncc4c(n3)N(C3CCCC3)CC(=O)N4)nc2)CC1	> 30 µM	> 30 µM	> 30 µM		> 30 µM	
CC(=O)c1c(C)c2cnc(Nc3ccc(N4CCNCC4)cn3)nc2n(C2CCCC2)c1=O [PALBOCICLIB]	6.21 µM	7.11 µM	13.3 µM		3.56 µM	
CN1C(=O)CN(C2CCCC2)c2nc(Nc3ccc(N4CCOCC4)cc3)ncc21	> 30 µM	> 30 µM	> 30 µM		20.1 µM	
CCN1C(=O)CN(C2CCCC2)c2nc(Nc3ccc(N4CCCCC4)cn3)ncc21	28.2 µM	14.5 µM	17.6 µM	> 30 µM	22 µM	
CCN1C(=O)CN(C2CCCC2)c2nc(Nc3ccc(N4CCC(C)CC4)cn3)ncc21	> 30 µM	19.1 µM	> 30 µM		> 30 µM	
O=C1CN(C2CCCC2)c2nc(Nc3ccc(N4CCOCC4)cc3)ncc2N1	25.1 µM	9.5 µM	26 µM	> 30 µM	22.8 µM	
CCN1C(=O)CN(C2CCCC2)c2nc(Nc3ccc(N4CCC(C)CC4)cc3)ncc21	> 30 µM	5.4 µM	> 30 µM	> 30 µM	24.4 µM	
CN1CCN(c2ccc(Nc3ncc4c(n3)N(C3CCCC3)CC(=O)N4C)cc2)CC1	10.3 µM	3.29 µM	6.75 µM	12.4 µM	7.56 µM	Activity [6]: Dose-dependent effect; Activity [7]: 0%; Activity [8]: 64.43%; Activity [9]: 88.97%; Activity [10]: 11.03%; Activity [11]: 48.98%; Activity [12]: 14.6%; Activity [13]: 47.11%; Activity [14]: 3.9%; Activity [15]: 20.97%
CN1C(=O)CN(C2CCCC2)c2nc(Nc3ccc(N4CCOCC4)cn3)ncc21	> 30 µM	23.6 µM	> 30 µM		28.4 µM	
CN1C(=O)CN(C2CCCC2)c2nc(Nc3ccc(N4CCCCC4)cc3)ncc21	21.2 µM	6.1 µM	16.9 µM	25.3 µM	9.86 µM	
CN1CCN(c2ccc(Nc3ncc4c(n3)N(C3CCCC3)CC(=O)N4)nc2)CC1	> 30 µM	> 30 µM	> 30 µM		26.5 µM	
CC1CCN(c2ccc(Nc3ncc4c(n3)N(C3CCCC3)CC(=O)N4C)nc2)CC1	> 30 µM	> 30 µM	> 30 µM		11.3 µM	
COc1ccc(Nc2ncc3c(n2)N(C2CCCC2)CC(=O)N3)cc1	> 30 µM	> 30 µM				
CC1CCN(c2ccc(Nc3ncc4c(n3)N(C3CCCC3)CC(=O)N4)cc2)CC1	22.7 µM	8.43 µM	> 30 µM		5.04 µM	
O=C1CN(C2CCCC2)c2nc(Nc3ccc(N4CCOCC4)cn3)ncc2N1	> 30 µM	25.3 µM	> 30 µM		22 µM	
O=C1CN(C2CCCC2)c2nc(Nc3ccc(N4CCCCC4)cc3)ncc2N1	25 µM	4.44 µM	> 30 µM	25.1 µM	5.54 µM	
